These results are taken from patent US20180321224A1, “COMPOSITIONS AND METHODS FOR INCREASING HEPATOCYTE FUNCTIONAL LIFETIME IN VITRO” (Colorado State University Research Foundation, priority 2015, published 2018).

Data set [1] concerns primary human hepatocytes in micropatterned co-cultures (MPCCs). Briefly: Hepatotoxicity screening in MPCCs pre-cultured in physiologic medium (urea synthesis). The note with it: for Calculated TC50 (interpolated concentration where urea synthesis drops below 50% of the vehicle control): MPCCs in physiologic medium for 10 days, treated 2 times over 5 days in serum free medium, vehicle DMSO. On the procedure: Therefore, a drug screen with cultures after they were subjected to physiologic medium for 10 days was carried out (FIG. 5). […] Drug treatments were carried out in serum free medium to prevent potential drug-protein interactions.
Urea synthesis and glucose production was quantified using previously described methods. Since human serum contains significant amounts of […], an alternative protocol to quantify MPCC albumin production was used. Specifically, after 2 and 3 weeks of culture, cultures were washed 3 times with 1×PBS, and then incubated for 24 hours in serum free medium. Albumin was then measured in this medium using a sandwich ELISA method. To account for potential residual albumin in cell culture medium, any differences in albumin production between cultures incubated in 5%, 7.5% and 10% serum were examined. […] Enzyme activity was assessed using the methods previously described.
Drug toxicity and enzyme induction were assessed as previously described.

For data set [2] the following is noted: average maximal drug concentration observed in patients after administering the drug; cited from earlier work.
The mark [3] stands for this setting: after 2 treatments over 5 days at 25*Cmax and 100*Cmax, serum free medium, MPCCs pre-cultured in physiologic medium 10 days.

Like-named read-outs stand apart in the source and are kept apart here.

As to `Clc1ccc(COC(Cn2ccnc2)c2ccc(Cl)cc2Cl)c(Cl)c1` (stereo not shown) [miconazole], in data set [1], the “Toxicity categorization by urea synthesis in MPCC supernatants (toxic if below 50% of vehicle control)” value is on record as “no significant loss in urea synthesis”.
Usually Cmax stands for the highest concentration seen after dosing. For the molecule troglitazone, the maximum concentration (Cmax) in data set [2] is 6.39 µM. Moreover, the “Calculated TC50 (interpolated concentration where urea synthesis drops below 50% of the vehicle control)” value in data set [1] was 1555 µM. In data set [1] (setting [3]), the “Toxicity categorization by urea synthesis in MPCC supernatants (toxic if below 50% of vehicle control)” value was “toxic”.
Take `CC(=O)Oc1ccccc1C(=O)O` [aspirin]: the “Toxicity categorization by urea synthesis in MPCC supernatants (toxic if below 50% of vehicle control)” value in data set [1] is listed as “no significant loss in urea synthesis”.
For `C[C@@H]1C[C@H]2[C@@H]3CCC4=CC(=O)C=C[C@]4(C)[C@@]3(F)[C@@H](O)C[C@]2(C)[C@@]1(O)C(=O)CO` [dexamethasone], in data set [1], the “Toxicity categorization by urea synthesis in MPCC supernatants (toxic if below 50% of vehicle control)” value is listed as “no significant loss in urea synthesis”.
In the case of piroxicam, in data set [2], the peak concentration (Cmax) was 5.13 µM. Further, in data set [1], the “Calculated TC50 (interpolated concentration where urea synthesis drops below 50% of the vehicle control)” value is 2901 µM. The “Toxicity categorization by urea synthesis in MPCC supernatants (toxic if below 50% of vehicle control)” value in data set [1] (setting [3]) was “toxic”.
For the molecule `C[C@]12C=CC(=O)C=C1CC[C@@H]1[C@@H]2C(=O)C[C@@]2(C)[C@H]1CC[C@]2(O)C(=O)CO` [prednisone], the “Toxicity categorization by urea synthesis in MPCC supernatants (toxic if below 50% of vehicle control)” value in data set [1] was “no significant loss in urea synthesis”.
